What was measured:
Glucocorticoid receptor = biological target: T1, Glucocorticoid receptor (Homo sapiens, UniProt P04150); type: functional
T1 sequence (P04150 whole entry): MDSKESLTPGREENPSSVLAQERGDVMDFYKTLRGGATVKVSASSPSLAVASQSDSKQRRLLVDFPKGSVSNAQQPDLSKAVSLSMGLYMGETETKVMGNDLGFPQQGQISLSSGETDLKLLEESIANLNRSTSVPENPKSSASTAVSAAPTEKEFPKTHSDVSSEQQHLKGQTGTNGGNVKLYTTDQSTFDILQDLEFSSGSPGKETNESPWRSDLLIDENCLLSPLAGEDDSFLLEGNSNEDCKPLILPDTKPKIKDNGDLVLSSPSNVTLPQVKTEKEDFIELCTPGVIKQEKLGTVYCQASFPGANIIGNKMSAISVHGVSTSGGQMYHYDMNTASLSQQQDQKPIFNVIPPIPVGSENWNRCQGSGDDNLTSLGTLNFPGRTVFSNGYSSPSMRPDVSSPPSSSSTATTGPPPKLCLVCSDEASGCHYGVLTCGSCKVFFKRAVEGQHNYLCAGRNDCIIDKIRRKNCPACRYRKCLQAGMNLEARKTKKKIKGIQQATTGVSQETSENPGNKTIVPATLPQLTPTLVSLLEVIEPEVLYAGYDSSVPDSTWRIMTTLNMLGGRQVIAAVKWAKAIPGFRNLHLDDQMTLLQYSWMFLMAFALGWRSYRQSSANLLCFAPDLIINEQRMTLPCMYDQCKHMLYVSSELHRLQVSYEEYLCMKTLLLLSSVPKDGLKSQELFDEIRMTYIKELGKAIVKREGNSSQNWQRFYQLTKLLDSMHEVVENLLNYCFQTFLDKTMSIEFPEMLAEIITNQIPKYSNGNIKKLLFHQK

D(1A) dopamine receptor = D(1A) dopamine receptor (Homo sapiens, UniProt P21728); type: functional, cell-based
Chain of D(1A) dopamine receptor (P21728 whole entry): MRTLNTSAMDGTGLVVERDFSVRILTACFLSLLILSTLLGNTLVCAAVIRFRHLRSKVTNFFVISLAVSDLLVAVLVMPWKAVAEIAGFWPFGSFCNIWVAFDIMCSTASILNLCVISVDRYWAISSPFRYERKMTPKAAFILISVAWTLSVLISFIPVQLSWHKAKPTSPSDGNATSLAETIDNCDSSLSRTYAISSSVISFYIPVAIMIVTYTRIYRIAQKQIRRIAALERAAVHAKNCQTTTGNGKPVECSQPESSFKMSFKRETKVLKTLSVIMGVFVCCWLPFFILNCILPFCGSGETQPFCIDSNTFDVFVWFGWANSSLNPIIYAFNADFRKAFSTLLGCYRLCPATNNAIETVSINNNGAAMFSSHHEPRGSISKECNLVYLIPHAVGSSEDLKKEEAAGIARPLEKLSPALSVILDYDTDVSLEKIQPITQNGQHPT

[1] = biological target: Gamma-aminobutyric acid receptor subunit alpha-1/alpha-2/beta-2/gamma-2 (Homo sapiens, UniProt P14867+P18507+P47869+P47870); type: functional, cell-based
Chain of Gamma-aminobutyric acid receptor subunit alpha-1/alpha-2/beta-2/gamma-2 (P14867 whole entry): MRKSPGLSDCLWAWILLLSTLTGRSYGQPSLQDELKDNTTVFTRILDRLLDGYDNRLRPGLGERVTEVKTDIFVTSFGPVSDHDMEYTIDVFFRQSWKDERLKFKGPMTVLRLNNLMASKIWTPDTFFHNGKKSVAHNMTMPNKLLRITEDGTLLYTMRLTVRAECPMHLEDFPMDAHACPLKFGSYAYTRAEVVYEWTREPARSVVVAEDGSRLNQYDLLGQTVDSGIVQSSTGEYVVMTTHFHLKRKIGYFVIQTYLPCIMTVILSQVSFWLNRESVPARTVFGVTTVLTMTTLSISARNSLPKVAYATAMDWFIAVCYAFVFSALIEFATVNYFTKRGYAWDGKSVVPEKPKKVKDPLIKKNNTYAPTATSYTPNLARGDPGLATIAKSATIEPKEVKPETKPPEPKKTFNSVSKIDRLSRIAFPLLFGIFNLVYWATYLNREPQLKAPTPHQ
Chain of Gamma-aminobutyric acid receptor subunit alpha-1/alpha-2/beta-2/gamma-2 (P47870 whole entry): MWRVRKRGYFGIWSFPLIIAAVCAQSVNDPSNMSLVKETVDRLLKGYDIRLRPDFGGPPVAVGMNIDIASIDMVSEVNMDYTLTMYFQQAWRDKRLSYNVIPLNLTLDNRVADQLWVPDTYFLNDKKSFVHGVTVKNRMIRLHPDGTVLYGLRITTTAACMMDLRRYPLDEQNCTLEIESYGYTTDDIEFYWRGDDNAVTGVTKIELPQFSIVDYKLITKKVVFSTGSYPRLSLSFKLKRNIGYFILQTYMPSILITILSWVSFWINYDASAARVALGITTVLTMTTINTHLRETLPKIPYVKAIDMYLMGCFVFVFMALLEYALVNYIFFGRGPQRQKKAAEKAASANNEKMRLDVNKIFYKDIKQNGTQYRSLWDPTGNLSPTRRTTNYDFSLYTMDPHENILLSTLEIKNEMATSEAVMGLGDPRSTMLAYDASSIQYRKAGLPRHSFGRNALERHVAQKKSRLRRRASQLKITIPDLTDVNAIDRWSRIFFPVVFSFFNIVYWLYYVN
Chain of Gamma-aminobutyric acid receptor subunit alpha-1/alpha-2/beta-2/gamma-2 (P18507 whole entry): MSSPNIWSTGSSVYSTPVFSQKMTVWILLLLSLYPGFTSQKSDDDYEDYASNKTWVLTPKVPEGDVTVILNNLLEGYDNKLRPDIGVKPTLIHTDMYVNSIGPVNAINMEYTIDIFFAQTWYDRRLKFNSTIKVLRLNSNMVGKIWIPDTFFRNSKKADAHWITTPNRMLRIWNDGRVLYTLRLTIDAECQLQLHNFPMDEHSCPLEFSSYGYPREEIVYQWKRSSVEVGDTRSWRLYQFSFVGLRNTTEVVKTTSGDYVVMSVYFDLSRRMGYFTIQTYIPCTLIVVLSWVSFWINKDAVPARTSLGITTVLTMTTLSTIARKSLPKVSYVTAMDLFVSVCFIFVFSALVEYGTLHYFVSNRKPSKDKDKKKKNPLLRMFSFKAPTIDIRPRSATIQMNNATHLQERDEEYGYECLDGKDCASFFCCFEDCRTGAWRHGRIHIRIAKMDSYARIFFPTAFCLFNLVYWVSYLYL
Chain of Gamma-aminobutyric acid receptor subunit alpha-1/alpha-2/beta-2/gamma-2 (P47869 whole entry): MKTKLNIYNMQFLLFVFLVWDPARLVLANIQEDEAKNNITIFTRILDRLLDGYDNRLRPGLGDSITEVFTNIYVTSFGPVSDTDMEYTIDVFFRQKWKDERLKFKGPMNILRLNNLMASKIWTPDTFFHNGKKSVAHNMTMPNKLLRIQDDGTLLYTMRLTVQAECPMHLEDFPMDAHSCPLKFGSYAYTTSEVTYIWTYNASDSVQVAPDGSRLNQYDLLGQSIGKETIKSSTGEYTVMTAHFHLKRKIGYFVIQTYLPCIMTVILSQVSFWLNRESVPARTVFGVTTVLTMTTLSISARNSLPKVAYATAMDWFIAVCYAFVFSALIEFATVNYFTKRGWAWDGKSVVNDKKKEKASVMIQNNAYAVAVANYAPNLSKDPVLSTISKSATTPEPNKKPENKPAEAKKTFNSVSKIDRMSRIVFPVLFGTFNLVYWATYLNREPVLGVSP

Progesterone receptor = biological target: T2, Progesterone receptor (Homo sapiens, UniProt P06401)
T2 sequence (P06401 whole entry): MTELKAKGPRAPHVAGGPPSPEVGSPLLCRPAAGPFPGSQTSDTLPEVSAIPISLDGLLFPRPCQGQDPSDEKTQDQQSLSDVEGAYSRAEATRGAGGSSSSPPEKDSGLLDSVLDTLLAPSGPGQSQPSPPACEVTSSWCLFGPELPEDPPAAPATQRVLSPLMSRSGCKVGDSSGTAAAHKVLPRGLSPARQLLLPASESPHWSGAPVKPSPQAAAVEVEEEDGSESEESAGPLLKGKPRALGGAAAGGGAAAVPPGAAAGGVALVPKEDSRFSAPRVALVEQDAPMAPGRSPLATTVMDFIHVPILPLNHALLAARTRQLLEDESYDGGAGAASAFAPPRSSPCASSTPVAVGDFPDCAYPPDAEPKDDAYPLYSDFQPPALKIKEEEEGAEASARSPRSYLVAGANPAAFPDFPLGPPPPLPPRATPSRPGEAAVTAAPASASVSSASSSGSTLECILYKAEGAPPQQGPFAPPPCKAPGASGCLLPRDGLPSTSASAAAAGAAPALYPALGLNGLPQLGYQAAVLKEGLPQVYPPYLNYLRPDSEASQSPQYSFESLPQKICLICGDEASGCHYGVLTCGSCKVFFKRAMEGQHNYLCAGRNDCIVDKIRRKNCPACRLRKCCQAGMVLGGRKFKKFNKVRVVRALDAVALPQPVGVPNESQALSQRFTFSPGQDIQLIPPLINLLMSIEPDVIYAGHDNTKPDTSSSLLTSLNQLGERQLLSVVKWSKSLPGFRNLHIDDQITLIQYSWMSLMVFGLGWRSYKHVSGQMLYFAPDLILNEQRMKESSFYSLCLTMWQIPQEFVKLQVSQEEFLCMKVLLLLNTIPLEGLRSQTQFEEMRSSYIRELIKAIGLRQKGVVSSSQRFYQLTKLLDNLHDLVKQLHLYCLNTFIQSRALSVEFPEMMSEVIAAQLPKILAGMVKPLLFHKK

[2] = biological target: T3, Alpha-2A adrenergic receptor (Homo sapiens, UniProt P08913)
T3 sequence (P08913 whole entry): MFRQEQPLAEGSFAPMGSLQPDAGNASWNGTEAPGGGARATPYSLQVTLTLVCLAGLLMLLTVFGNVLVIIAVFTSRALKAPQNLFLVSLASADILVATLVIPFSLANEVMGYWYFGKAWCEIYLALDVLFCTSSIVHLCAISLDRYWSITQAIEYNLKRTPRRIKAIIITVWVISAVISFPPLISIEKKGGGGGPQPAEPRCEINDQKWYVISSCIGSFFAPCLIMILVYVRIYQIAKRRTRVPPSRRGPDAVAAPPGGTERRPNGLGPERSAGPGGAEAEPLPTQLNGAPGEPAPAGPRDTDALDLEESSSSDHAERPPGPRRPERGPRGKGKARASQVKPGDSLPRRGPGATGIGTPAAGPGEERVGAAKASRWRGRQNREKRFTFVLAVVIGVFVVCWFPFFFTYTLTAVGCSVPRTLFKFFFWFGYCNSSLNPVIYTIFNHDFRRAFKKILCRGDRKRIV

Estrogen receptor beta = Estrogen receptor beta (Homo sapiens, UniProt Q92731)
Chain of Estrogen receptor beta (Q92731 whole entry): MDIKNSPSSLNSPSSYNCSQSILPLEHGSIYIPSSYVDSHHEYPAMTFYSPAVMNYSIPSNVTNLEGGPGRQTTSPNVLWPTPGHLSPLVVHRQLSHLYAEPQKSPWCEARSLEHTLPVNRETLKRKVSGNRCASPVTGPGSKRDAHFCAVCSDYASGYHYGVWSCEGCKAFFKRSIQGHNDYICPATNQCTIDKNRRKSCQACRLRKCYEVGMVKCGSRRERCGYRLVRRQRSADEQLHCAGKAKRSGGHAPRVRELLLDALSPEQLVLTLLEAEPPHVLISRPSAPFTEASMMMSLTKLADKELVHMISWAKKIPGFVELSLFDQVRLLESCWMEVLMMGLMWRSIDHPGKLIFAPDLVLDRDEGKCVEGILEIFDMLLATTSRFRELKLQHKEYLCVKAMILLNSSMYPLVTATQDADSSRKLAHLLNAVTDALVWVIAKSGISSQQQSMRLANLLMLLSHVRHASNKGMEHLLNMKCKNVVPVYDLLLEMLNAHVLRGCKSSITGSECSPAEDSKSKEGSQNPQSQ

[3] = biological target: T4, Gastric inhibitory polypeptide receptor (Homo sapiens, UniProt P48546)
T4 sequence (P48546 whole entry): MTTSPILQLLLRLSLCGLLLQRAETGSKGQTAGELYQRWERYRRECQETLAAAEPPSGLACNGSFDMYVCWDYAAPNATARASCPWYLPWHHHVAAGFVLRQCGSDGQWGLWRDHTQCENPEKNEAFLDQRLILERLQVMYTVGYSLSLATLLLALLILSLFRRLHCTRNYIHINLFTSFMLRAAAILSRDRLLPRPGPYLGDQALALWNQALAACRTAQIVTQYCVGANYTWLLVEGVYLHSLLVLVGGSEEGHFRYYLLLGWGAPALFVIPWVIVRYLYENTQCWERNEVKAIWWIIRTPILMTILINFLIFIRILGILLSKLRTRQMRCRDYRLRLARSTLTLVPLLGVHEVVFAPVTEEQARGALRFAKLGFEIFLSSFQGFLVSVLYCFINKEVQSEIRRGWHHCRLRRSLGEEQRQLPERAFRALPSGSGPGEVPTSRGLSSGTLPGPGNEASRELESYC

Substance-P receptor = Substance-P receptor (Homo sapiens, UniProt P25103)
Chain of Substance-P receptor (P25103 whole entry): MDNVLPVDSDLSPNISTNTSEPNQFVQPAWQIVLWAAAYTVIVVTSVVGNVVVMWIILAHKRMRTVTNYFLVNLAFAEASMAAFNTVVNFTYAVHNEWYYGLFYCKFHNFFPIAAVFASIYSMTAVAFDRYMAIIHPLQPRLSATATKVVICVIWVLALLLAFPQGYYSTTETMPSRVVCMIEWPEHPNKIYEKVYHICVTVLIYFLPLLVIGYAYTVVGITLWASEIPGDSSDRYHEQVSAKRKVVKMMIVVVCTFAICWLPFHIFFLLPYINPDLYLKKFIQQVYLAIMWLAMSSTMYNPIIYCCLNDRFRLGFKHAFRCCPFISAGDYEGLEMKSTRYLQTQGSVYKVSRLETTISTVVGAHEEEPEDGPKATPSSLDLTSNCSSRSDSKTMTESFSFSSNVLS

[4] = biological target: Gamma-aminobutyric acid receptor subunit alpha-1 (Rattus norvegicus, UniProt P62813)
Chain of Gamma-aminobutyric acid receptor subunit alpha-1 (P62813 whole entry): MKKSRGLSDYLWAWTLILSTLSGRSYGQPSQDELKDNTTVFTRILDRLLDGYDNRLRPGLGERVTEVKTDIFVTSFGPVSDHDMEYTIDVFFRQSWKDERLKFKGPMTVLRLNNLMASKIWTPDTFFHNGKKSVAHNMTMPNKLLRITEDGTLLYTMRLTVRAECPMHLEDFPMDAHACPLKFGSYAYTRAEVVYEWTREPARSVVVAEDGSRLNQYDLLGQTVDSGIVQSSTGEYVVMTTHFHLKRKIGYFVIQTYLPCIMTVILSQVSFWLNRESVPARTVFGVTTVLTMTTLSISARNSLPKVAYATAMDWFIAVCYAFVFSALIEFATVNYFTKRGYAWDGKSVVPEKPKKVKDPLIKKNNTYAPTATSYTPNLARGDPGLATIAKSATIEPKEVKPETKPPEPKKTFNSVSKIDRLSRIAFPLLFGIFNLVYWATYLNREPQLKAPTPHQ
Further: assay procedure not described here.

| Compound | AC50 (Glucocorticoid receptor) | AC50 (D(1A) dopamine receptor) | AC50 [1] | AC50 (Progesterone receptor) | AC50 [2] | AC50 (Estrogen receptor beta) | AC50 [3] | AC50 (Substance-P receptor) | AC50 [4] |
| --- | --- | --- | --- | --- | --- | --- | --- | --- | --- |
| CN(C)CCC=C1c2ccccc2C(C)(C)c2ccccc21 | > 30 µM | 4.5 µM | > 30 µM |  |  |  |  |  |  |
| CNC(=O)c1ccccc1Sc1ccc2c(/C=C/c3ccccn3)n[nH]c2c1 [AXITINIB] | > 10 µM | > 30 µM | > 30 µM | > 30 µM |  |  |  |  |  |
| NCC(CC(=O)O)c1ccc(Cl)cc1 (stereo not given) [BACLOFEN] | > 30 µM | > 30 µM | > 30 µM | > 30 µM | > 10 µM | > 30 µM | > 30 µM | > 10 µM |  |
| CC(C)C[C@H]1C(=O)N2CCC[C@H]2[C@]2(O)O[C@](NC(=O)[C@@H]3C=C4c5cccc6[nH]c(Br)c(c56)C[C@H]4N(C)C3)(C(C)C)C(=O)N12 [BROMOCRIPTINE] | > 30 µM | > 30 µM | > 30 µM | > 30 µM |  |  | > 30 µM |  | > 30 µM |
| O=C1Nc2ccc(Cl)cc2[C@@](C#CC2CC2)(C(F)(F)F)O1 [EFAVIRENZ] | > 30 µM |  |  |  |  |  |  |  |  |
| CCC1=C(C)CN(C(=O)NCCc2ccc(S(=O)(=O)NC(=O)N[C@H]3CC[C@H](C)CC3)cc2)C1=O [GLIMEPIRIDE] | > 30 µM |  |  |  |  |  |  |  | > 30 µM |
| c1ccc([C@H]2CN3CCSC3=N2)cc1 [LEVAMISOLE] | > 30 µM | > 30 µM | > 30 µM | > 30 µM |  |  |  |  |  |
| C[C@H]1CNCCc2ccc(Cl)cc21 [LORCASERIN] | > 30 µM | > 30 µM | > 30 µM |  |  |  |  |  |  |
| C[C@@H](O)[C@H]1C(=O)N2C(C(=O)O)=C(S[C@@H]3CN[C@H](C(=O)N(C)C)C3)[C@H](C)[C@H]12 [MEROPENEM] | > 300 µM | > 300 µM | > 300 µM |  |  |  |  |  |  |
| CNC1Cc2ccccc2N(C)c2ccccc21 (stereo not given) [METAPRAMINE] | > 30 µM | > 30 µM | > 30 µM |  |  |  |  |  |  |
| COc1ccc(CC(C)(C)NC[C@H](O)c2cc(O)cc3c2OCC(=O)N3)cc1 [OLODATEROL] | > 30 µM | > 30 µM | > 30 µM |  |  |  |  |  |  |
| CCCN1C[C@H](CSC)C[C@@H]2c3cccc4[nH]cc(c34)C[C@H]21 [PERGOLIDE] | > 30 µM |  | > 30 µM | > 30 µM |  | > 30 µM | > 30 µM |  |  |
| C1CCC(C(CC2CCCCN2)C2CCCCC2)CC1 (stereo not given) [PERHEXILINE] | > 30 µM | > 30 µM | > 30 µM |  |  |  |  |  |  |
| c1cnc(N2CCN(Cc3ccc4c(c3)OCO4)CC2)nc1 [PIRIBEDIL] | > 30 µM | > 30 µM | > 30 µM |  |  |  |  |  |  |
| COCCCN1CCC(NC(=O)c2cc(Cl)c(N)c3c2OCC3)CC1 [PRUCALOPRIDE] | > 30 µM |  | > 30 µM |  |  |  |  |  | > 30 µM |
| Cc1c(C(=O)NN2CCCCC2)nn(-c2ccc(Cl)cc2Cl)c1-c1ccc(Cl)cc1 [RIMONABANT] | > 30 µM | 26 µM | > 30 µM | > 30 µM | > 10 µM | > 30 µM | > 30 µM | > 10 µM |  |
| N[C@@H]1[C@H]2CN(c3nc4c(cc3F)c(=O)c(C(=O)O)cn4-c3ccc(F)cc3F)C[C@@H]12 [TROVAFLOXACIN] | > 30 µM | > 30 µM | > 30 µM |  |  |  |  |  |  |
